This is an account of results in US9902728B2, “Pyrrolo and pyrazolopyrimidines as ubiquitin-specific protease 7 inhibitors” (Forma Therapeutics, Inc., priority 2014, dated 2018).

T1 sequence (Q93009 208-1102): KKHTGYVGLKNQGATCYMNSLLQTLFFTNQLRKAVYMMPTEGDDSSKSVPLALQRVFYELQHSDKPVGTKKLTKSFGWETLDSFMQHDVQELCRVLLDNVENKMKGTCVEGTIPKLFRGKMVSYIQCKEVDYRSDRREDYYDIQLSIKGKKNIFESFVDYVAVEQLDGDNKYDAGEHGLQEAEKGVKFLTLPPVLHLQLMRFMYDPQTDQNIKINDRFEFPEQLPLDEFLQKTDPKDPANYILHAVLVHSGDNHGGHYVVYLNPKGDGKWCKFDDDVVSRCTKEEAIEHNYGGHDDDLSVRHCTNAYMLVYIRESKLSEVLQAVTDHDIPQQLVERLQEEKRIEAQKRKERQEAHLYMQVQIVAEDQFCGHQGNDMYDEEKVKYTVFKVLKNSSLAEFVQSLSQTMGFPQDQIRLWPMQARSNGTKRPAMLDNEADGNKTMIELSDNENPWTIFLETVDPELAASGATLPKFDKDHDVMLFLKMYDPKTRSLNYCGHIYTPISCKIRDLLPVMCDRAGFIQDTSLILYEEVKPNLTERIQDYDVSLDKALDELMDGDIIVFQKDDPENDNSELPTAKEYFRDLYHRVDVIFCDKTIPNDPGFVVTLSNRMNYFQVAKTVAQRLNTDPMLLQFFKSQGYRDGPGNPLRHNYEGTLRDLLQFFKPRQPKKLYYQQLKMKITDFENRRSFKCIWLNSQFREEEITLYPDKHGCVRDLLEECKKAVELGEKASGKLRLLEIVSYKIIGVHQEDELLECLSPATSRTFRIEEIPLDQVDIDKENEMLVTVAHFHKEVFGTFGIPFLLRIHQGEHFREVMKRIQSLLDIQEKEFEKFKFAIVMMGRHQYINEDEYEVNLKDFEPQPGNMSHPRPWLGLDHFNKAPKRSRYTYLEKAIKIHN

One test addresses T1, USP7 (Homo sapiens, UniProt Q93009).
T1 construct: USP7, construct USP7 (208-1102) 6*His, Viva Biotech; 6xHis (C); purchased Viva Biotech
The experiment in a line: USP7 Assay A (Ubitquin-Rhodamine 110 Assay). As to conditions: USP7 assay A and B (table does not say which assay per compound); Ubiquitin-Rhodamine 110 substrate; read-out: USP7_IC50. Format: biochemical. The procedure: Each assay was performed in a final volume of 15 μL in assay buffer containing 20 mM Tris-HCl (pH 8.0, (1M Tris-HCl, pH 8.0 solution; Corning 46-031-CM)), 1 mM GSH (L-Glutathione reduced; Sigma #G4251), 0.03% BGG ([…], Sigma, #G7516-25G), and 0.01% Triton X-100 (Sigma, #T9284-10L). […] 5 μL of 2× enzyme was added to assay plates (pre-stamped with compound) preincubated with USP7 for 30 minutes and then 5 μL of 2×Ub-Rh110 was added to assay plates. […] Fluorescence was read on the Envision (Excitation at 485 nm and Emission at 535 nm; Perkin Elmer) or on the PheraSTAR (Excitation at 485 nm and Emission at 535 nm; BMG Labtech).
Data from USP7 Assays A and B were reported as percent inhibition (inh) compared with control wells based on the following equation: % inh=1−((FLU−AveLow)/(AveHigh−AveLow)) where FLU=measured Fluorescence (See Tables 6-10). AveLow=average Fluorescence of no enzyme control (n=16). AveHigh=average Fluorescence of DMSO control (n=16). […] Data is fitted using the Levenburg Marquardt algorithm.
On to `C[C@H](CC(=O)N1CCC(O)(Cn2cnc3c(cnn3C)c2=O)CC1)c1ccccc1` [Compound I-57], for which the IC50 lay in the range of 0.2 to 1 µM.

As to `C[C@H](CC(=O)N1CCC(O)(Cn2cnc3c(cnn3C(C)(C)C)c2=O)CC1)c1ccccc1` [Compound I-59], the IC50 was 0.2 to 1 µM.

For `CC(C)(C)n1ncc2c(=O)n(CC3(O)CCN(C(=O)c4ccc(Oc5ccccc5)cc4)CC3)cnc21` [Compound I-60], the IC50 is over 10 µM.

Turning to `CC(C)n1ncc2c(=O)n(CC3(O)CCN(C(=O)C[C@@H](C)c4ccccc4)CC3)cnc21` [Compound I-61], the IC50 was in the range of 0.2 to 1 µM.

Still in this test, the particulars now being: USP7 assay A and B (table does not say which assay per compound); read-out: USP7_IC50.
On to `CC(C)n1ncc2c(=O)n(CC3(O)CCN(C(=O)c4ccc(Oc5ccccc5)cc4)CC3)cnc21` [Compound I-62], for which the IC50 was over 10 µM.

Turning to `C[C@H](CC(=O)N1CCC(O)(Cn2cnc3c(cnn3-c3ccc(F)cc3)c2=O)CC1)c1ccccc1` [Compound I-65], the IC50 is under 0.2 µM.

`O=C(c1ccc(Oc2ccccc2)cc1)N1CCC(O)(Cn2cnc3c(cnn3-c3ccc(F)cc3)c2=O)CC1` [Compound I-66]: the IC50 is 0.2 to 1 µM.

With `C[C@H](CC(=O)N1CCC(O)(Cn2cnc3c(cnn3-c3cccc(C(F)(F)F)c3)c2=O)CC1)c1ccccc1` [Compound I-67], the IC50 is under 0.2 µM.

Turning to `Cc1ccc(-n2ncc3c(=O)n(CC4(O)CCN(C(=O)C[C@@H](C)c5ccccc5)CC4)cnc32)cc1` [Compound I-68], the IC50 is under 0.2 µM.

For the compound `Cc1ccc(-n2ncc3c(=O)n(CC4(O)CCN(C(=O)c5ccc(Oc6ccccc6)cc5)CC4)cnc32)cc1` [Compound I-69], the IC50 was 0.2 to 1 µM.

As for `C[C@H](CC(=O)N1CCC(O)(Cn2cnc3c(cnn3-c3ccccn3)c2=O)CC1)c1ccccc1` [Compound I-70], the IC50 was in the range of 0.2 to 1 µM.

Turning to `C[C@H](CC(=O)N1CCC(O)(Cn2cnc3c(cnn3-c3ccccc3)c2=O)CC1)c1ccccc1` [Compound I-72], the IC50 was under 0.2 µM.

For the compound `O=C(c1ccc(Oc2ccccc2)cc1)N1CCC(O)(Cn2cnc3c(cnn3-c3ccccc3)c2=O)CC1` [Compound I-73], the IC50 fell in the range of 0.2 to 1 µM.

As for `CC(CC(=O)N1CCC(O)(Cn2cnc3c(cnn3C)c2=O)CC1)c1ccc(F)cc1` (centres unmarked) [Compound I-78], the IC50 is 0.2 to 1 µM.

Consider `Cn1ncc2c(=O)n(CC3(O)CCN(C(=O)c4ccc(-c5ccccc5CC#N)cc4)CC3)cnc21` [Compound I-83], for which the IC50 lay in the range of 1 to 10 µM.

In the case of `CC(CC(=O)N1CCC(O)(Cn2cnc3c(cnn3C)c2=O)CC1)n1cccc1` (centres unmarked) [Compound I-105], the IC50 is 0.2 to 1 µM.

Turning to `Cn1ncc2c(=O)n(CC3(O)CCN(C(=O)c4ccc(S(=O)(=O)Nc5ccccc5)cc4)CC3)cnc21` [Compound I-106], the IC50 was 1 to 10 µM.

On to `CN(C(=O)c1ccc(C(=O)N2CCC(O)(Cn3cnc4c(cnn4C)c3=O)CC2)cc1)c1ccccc1` [Compound I-108], for which the IC50 fell in the range of 1 to 10 µM.

For the compound `Cn1ncc2c(=O)n(CC3(O)CCN(C(=O)c4ccc(NS(=O)(=O)c5ccccc5)cc4)CC3)cnc21` [Compound I-111], the IC50 lay within 1 to 10 µM.

Consider `Cn1ncc2c(=O)n(CC3(O)CCN(C(=O)c4ccc5c(c4)CCN(c4ccccc4)C5)CC3)cnc21` [Compound I-115], for which the IC50 lay in the range of 1 to 10 µM.

Take `CN(Cc1ccccc1)c1ccc(C(=O)N2CCC(O)(Cn3cnc4c(cnn4C)c3=O)CC2)cc1` [Compound I-119]: the IC50 is 0.2 to 1 µM.

Take `O=C(C[C@H](c1ccccc1)C(F)(F)F)N1CCC(O)(Cn2cnc3c(cnn3-c3ccccc3)c2=O)CC1` [Compound I-141]: the IC50 was in the range of 1 to 10 µM.

Take `O=C(C[C@@H](c1ccccc1)C(F)(F)F)N1CCC(O)(Cn2cnc3c(cnn3-c3ccccc3)c2=O)CC1` [Compound I-142]: the IC50 was under 0.2 µM.

Turning to `Cn1ncc2c(=O)n(CC3(O)CCN(C(=O)C[C@H](c4ccccc4)C(F)(F)F)CC3)cnc21` [Compound I-143], the IC50 was in the range of 1 to 10 µM.

On to `Cc1ccc(-n2ncc3c(=O)n(CC4(O)CCN(C(=O)C[C@H](c5ccccc5)C(F)(F)F)CC4)cnc32)cc1` [Compound I-144], for which the IC50 lay in the range of 1 to 10 µM.

As to `Cc1ccc(-n2ncc3c(=O)n(CC4(O)CCN(C(=O)C[C@@H](c5ccccc5)C(F)(F)F)CC4)cnc32)cc1` [Compound I-145], the IC50 was under 0.2 µM.

Regarding `Cn1ncc2c(=O)n(CC3(O)CCN(C(=O)CC(c4ccccc4)C(F)F)CC3)cnc21` (centres unmarked) [Compound I-147], the IC50 fell in the range of 1 to 10 µM.

As to `O=C(c1cccn1Cc1ccccc1)N1CCC(O)(Cn2cnc3c(cnn3-c3ccccc3)c2=O)CC1` [Compound I-150], the IC50 was under 0.2 µM.

`O=C(c1ccc(Oc2ccccc2)cc1)N1CCC(O)(Cn2cnc3c(cnn3C3CC3)c2=O)CC1` [Compound I-152]: the IC50 lay within 1 to 10 µM.

With `O=C(c1ccccc1)N1CCC(O)(Cn2cnc3c(cnn3-c3ccccc3)c2=O)CC1` [Compound I-153], the IC50 lay within 1 to 10 µM.

As to `CC(=O)N1CCC(O)(Cn2cnc3c(cnn3-c3ccccc3)c2=O)CC1` [Compound I-154], the IC50 is 1 to 10 µM.

In the case of `Cn1cnc(C(=O)N2CCC(O)(Cn3cnc4c(cnn4-c4ccccc4)c3=O)CC2)c1` [Compound I-155], the IC50 lay in the range of 1 to 10 µM.

`O=C(c1ccc(C2CC2)cc1)N1CCC(O)(Cn2cnc3c(cnn3-c3ccccc3)c2=O)CC1` [Compound I-156]: the IC50 lay in the range of 0.2 to 1 µM.

As for `COc1ccc(C(=O)N2CCC(O)(Cn3cnc4c(cnn4-c4ccccc4)c3=O)CC2)cc1` [Compound I-157], the IC50 fell in the range of 0.2 to 1 µM.

Regarding `O=C(C1CC1)N1CCC(O)(Cn2cnc3c(cnn3-c3ccccc3)c2=O)CC1` [Compound I-158], the IC50 is 1 to 10 µM.

On to `O=C(c1ccc(=O)[nH]c1)N1CCC(O)(Cn2cnc3c(cnn3-c3ccccc3)c2=O)CC1` [Compound I-160], for which the IC50 lay in the range of 0.2 to 1 µM.

Turning to `CS(=O)(=O)Nc1ccc(C(=O)N2CCC(O)(Cn3cnc4c(cnn4-c4ccccc4)c3=O)CC2)cc1` [Compound I-164], the IC50 was 0.2 to 1 µM.

Consider `C=CS(=O)(=O)NCC(Cc1ccccc1)C(=O)N1CCC(O)(Cn2cnc3c(cnn3C)c2=O)CC1` (centres unmarked) [Compound I-170], for which the IC50 is over 10 µM.

As for `NC(=O)c1cccc(C(=O)N2CCC(O)(Cn3cnc4c(cnn4-c4ccccc4)c3=O)CC2)c1` [Compound I-172], the IC50 was 1 to 10 µM.

As for `C=CS(=O)(=O)Nc1ccc(C(=O)N2CCC(O)(Cn3cnc4c(cnn4-c4ccccc4)c3=O)CC2)cc1` [Compound I-173], the IC50 lay in the range of 0.2 to 1 µM.

As for `C[C@H](CC(=O)N1CCC(O)(Cn2cnc3c(cnn3-c3ccccc3)c2=O)CC1)n1cccn1` [Compound I-175], the IC50 was under 0.2 µM.

`C[C@@H](CC(=O)N1CCC(O)(Cn2cnc3c(cnn3-c3ccccc3)c2=O)CC1)n1cccn1` [Compound I-176]: the IC50 was in the range of 1 to 10 µM.

Take `C[C@H](CC(=O)N1CCC(O)(Cn2cnc3c(cnn3-c3ccccc3)c2=O)CC1)n1cccc1` [Compound I-177]: the IC50 was under 0.2 µM.

`C[C@@H](CC(=O)N1CCC(O)(Cn2cnc3c(cnn3-c3ccccc3)c2=O)CC1)n1cccc1` [Compound I-178]: the IC50 was 1 to 10 µM.

In the case of `NC(=O)c1ccc(C(=O)N2CCC(O)(Cn3cnc4c(cnn4-c4ccccc4)c3=O)CC2)cc1` [Compound I-179], the IC50 was in the range of 0.2 to 1 µM.

With `CC(=O)Nc1cccc(C(=O)N2CCC(O)(Cn3cnc4c(cnn4-c4ccccc4)c3=O)CC2)c1` [Compound I-181], the IC50 was in the range of 1 to 10 µM.

For `CNS(=O)(=O)c1ccc(C(=O)N2CCC(O)(Cn3cnc4c(cnn4-c4ccccc4)c3=O)CC2)cc1` [Compound I-182], the IC50 was 1 to 10 µM.

Take `CNC(=O)c1ccc(C(=O)N2CCC(O)(Cn3cnc4c(cnn4-c4ccccc4)c3=O)CC2)cc1` [Compound I-184]: the IC50 is 0.2 to 1 µM.

For `O=C(C1CCCCC1)N1CCC(O)(Cn2cnc3c(cnn3-c3ccccc3)c2=O)CC1` [Compound I-189], the IC50 lay in the range of 0.2 to 1 µM.

For `O=C(c1ccc(F)cc1)N1CCC(O)(Cn2cnc3c(cnn3-c3ccccc3)c2=O)CC1` [Compound I-190], the IC50 fell in the range of 0.2 to 1 µM.

Take `O=C(c1ccncc1)N1CCC(O)(Cn2cnc3c(cnn3-c3ccccc3)c2=O)CC1` [Compound I-191]: the IC50 lay in the range of 1 to 10 µM.

On to `O=C(C1CCC1)N1CCC(O)(Cn2cnc3c(cnn3-c3ccccc3)c2=O)CC1` [Compound I-194], for which the IC50 lay within 1 to 10 µM.

With `O=C(C1CCCC1)N1CCC(O)(Cn2cnc3c(cnn3-c3ccccc3)c2=O)CC1` [Compound I-195], the IC50 lay in the range of 0.2 to 1 µM.

On to `Cc1cc(C)cc(C(=O)N2CCC(O)(Cn3cnc4c(cnn4-c4ccccc4)c3=O)CC2)c1` [Compound I-197], for which the IC50 lay in the range of 1 to 10 µM.

As to `Cc1ccc(C(=O)N2CCC(O)(Cn3cnc4c(cnn4-c4ccccc4)c3=O)CC2)cc1C` [Compound I-200], the IC50 lay within 1 to 10 µM.

As to `COc1cc(OC)cc(C(=O)N2CCC(O)(Cn3cnc4c(cnn4-c4ccccc4)c3=O)CC2)c1` [Compound I-203], the IC50 was over 10 µM.

Turning to `Cc1cccc(C(=O)N2CCC(O)(Cn3cnc4c(cnn4-c4ccccc4)c3=O)CC2)c1F` [Compound I-206], the IC50 was 1 to 10 µM.

Regarding `O=C(c1ccc(F)cc1F)N1CCC(O)(Cn2cnc3c(cnn3-c3ccccc3)c2=O)CC1` [Compound I-209], the IC50 fell in the range of 1 to 10 µM.

`O=C(c1ccc(F)c(Cl)c1)N1CCC(O)(Cn2cnc3c(cnn3-c3ccccc3)c2=O)CC1` [Compound I-210]: the IC50 fell in the range of 1 to 10 µM.
